Laboratory results as given in patent publication US10160724B2, “Tetrahydropyridine derivatives and their use as antibacterial agents” (Dong-A St Co., Ltd., priority 2016, dated 2018).
In brackets after ≈: the same amount, converted by molar mass.

What was measured:
Test in all cases: In vitro antibiotic activity, agar dilution method (Mueller-Hinton agar, NCCLS)
Type in all cases: cell-based
[1] = test system: K. pneumoniae ATCC 29665; settings: Klebsiella pneumoniae, ATCC29665; agar dilution, Mueller-Hinton agar; read-out: MIC for K. pneumoniae ATCC 29665
Experimental: (§1) To measure the antibiotic activity of the compounds prepared by Examples, antibiotic activity test in vitro was performed by agar dilution method using Mueller-Hinton agar according to the NCCLS (National Committee for Clinical Laboratory Standards. 2000. Methods for dilution antimicrobial susceptibility tests for bacteria that grow aerobiocally. Approved standard, NCCLS document M7-M5, 5th ed, vol 20, no 2. National Committee for Clinical Laboratory Standards, Wayne, Pa.). The test strain was Escherichia coli (ATCC 25922), Klebsiella pneumonia (ATCC 29665) and Pseudomonas aeriginosa (PAO1).

[2] = test system: E. coli ATCC 25922; settings: Escherichia coli, ATCC25922; agar dilution, Mueller-Hinton agar; read-out: MIC for E. coli ATCC 25922
Experimental: as §1

[3] = test system: P. aeruginosa PAO1; settings: Pseudomonas aeruginosa, PAO1; agar dilution, Mueller-Hinton agar; read-out: MIC for P. aeruginosa PAO1
Experimental: as §1

Row | SMILES | MIC [1] [µg/mL] | MIC [2] [µg/mL] | MIC [3] [µg/mL]
1 | CC(CCN1CC=C(c2ccc(C#CCCCN)cc2)CC1)(C(=O)NO)S(C)(=O)=O (stereo not drawn) [Example 21, 4-(4-(4-(5-aminopent-1-yn-1-yl)phenyl)-3,6-dihydropyridin-1(2H)-yl)-N-hydroxy-2-methyl-2-(methylsulfonyl)butanamide] | > 16 | 8 to 16 (≈ 18.5 to 36.9 µM) | > 16
2 | CC(CCN1CC=C(c2ccc(C#CCO)cc2)CC1)(C(=O)NO)S(C)(=O)=O (stereo not drawn) [Example 22, N-hydroxy-4-(4-(4-(3-hydroxyprop-1-yn-1-yl)phenyl)-3,6-dihydropyridin-1(2H)-yl)-2-methyl-2-(methylsulfonyl)butanamide] | > 16 | 1 to 8 (≈ 2.46 to 19.7 µM) | 1 to 8 (≈ 2.46 to 19.7 µM)
3 | COCC#Cc1ccc(C2=CCN(CCC(C)(C(=O)NO)S(C)(=O)=O)CC2)cc1 (stereo not drawn) [Example 23, N-hydroxy-4-(4-(4-(3-methoxyprop-1-yn-1-yl)phenyl)-3,6-dihydropyridin-1(2H)-yl)-2-methyl-2-(methylsulfonyl)butanamide] | 1 to 8 (≈ 2.38 to 19 µM) | < 1 | 1 to 8 (≈ 2.38 to 19 µM)
4 | CC(CCN1CC=C(c2ccc(C#CCOCCCO)cc2)CC1)(C(=O)NO)S(C)(=O)=O (stereo not drawn) [Example 24, N-hydroxy-4-(4-(4-(3-(3-hydroxypropoxy)prop-1-yn-1-yl)phenyl)-3,6-dihydropyridin-1(2H)-yl)-2-methyl-2-(methylsulfonyl)butanamide] | 1 to 8 (≈ 2.15 to 17.2 µM) | 1 to 8 (≈ 2.15 to 17.2 µM) | 1 to 8 (≈ 2.15 to 17.2 µM)
5 | CC(CCN1CC=C(c2ccc(C#CCN3CCOCC3)cc2)CC1)(C(=O)NO)S(C)(=O)=O (stereo not drawn) [Example 25, N-hydroxy-2-methyl-2-(methylsulfonyl)-4-(4-(4-(3-morpholinoprop-1-yn-1-yl)phenyl)-3,6-dihydropyridin-1(2H)-yl)butanamide] | 1 to 8 (≈ 2.1 to 16.8 µM) | 1 to 8 (≈ 2.1 to 16.8 µM) | 1 to 8 (≈ 2.1 to 16.8 µM)
6 | CC(CCN1CC=C(c2ccc(C#CCOC(N)=O)cc2)CC1)(C(=O)NO)S(C)(=O)=O (stereo not drawn) [Example 26, 3-(4-(1-(4-(hydroxyamino)-3-methyl-3-(methylsulfonyl)-4-oxobutyl)-1,2,3,6-tetrahydropyridin-4-yl)phenyl)prop-2-yn-1-yl carbamate] | 8 to 16 (≈ 17.8 to 35.6 µM) | 1 to 8 (≈ 2.22 to 17.8 µM) | 1 to 8 (≈ 2.22 to 17.8 µM)
7 | CC(CCN1CC=C(c2ccc(C#CCCCOC(N)=O)cc2)CC1)(C(=O)NO)S(C)(=O)=O (stereo not drawn) [Example 27, 5-(4-(1-(4-(hydroxyamino)-3-methyl-3-(methylsulfonyl)-4-oxobutyl)-1,2,3,6-tetrahydropyridin-4-yl)phenyl)pent-4-yn-1-yl carbamate] | 1 to 8 (≈ 2.09 to 16.8 µM) | < 1 | 1 to 8 (≈ 2.09 to 16.8 µM)
8 | COCCCC#Cc1ccc(C2=CCN(CCC(C)(C(=O)NO)S(C)(=O)=O)CC2)cc1 (stereo not drawn) [Example 28, N-hydroxy-4-(4-(4-(5-methoxypent-1-yn-1-yl)phenyl)-3,6-dihydropyridin-1(2H)-yl)-2-methyl-2-(methylsulfonyl)butanamide] | < 1 | < 1 | 1 to 8 (≈ 2.23 to 17.8 µM)
9 | CC(CCN1CC=C(c2ccc(C#CCCCCO)cc2)CC1)(C(=O)NO)S(C)(=O)=O (stereo not drawn) [Example 29, N-hydroxy-4-(4-(4-(6-hydroxyhex-1-yn-1-yl)phenyl)-3,6-dihydropyridin-1(2H)-yl)-2-methyl-2-(methylsulfonyl)butanamide] | 1 to 8 (≈ 2.23 to 17.8 µM) | < 1 | 1 to 8 (≈ 2.23 to 17.8 µM)
10 | CC(CCN1CC=C(c2ccc(C#CCCCCN3CCOCC3)cc2)CC1)(C(=O)NO)S(C)(=O)=O (stereo not drawn) [Example 30, N-hydroxy-2-methyl-2-(methylsulfonyl)-4-(4-(4-(6-morpholinohex-1-yn-1-yl)phenyl)-3,6-dihydropyridin-1(2H)-yl)butanamide] | 1 to 8 (≈ 1.93 to 15.5 µM) | < 1 | 1 to 8 (≈ 1.93 to 15.5 µM)
11 | CN(C)CC#Cc1ccc(C2=CCN(CCC(C)(C(=O)NO)S(C)(=O)=O)CC2)cc1F (stereo not drawn) [Example 31, 4-(4-(4-(3-(dimethylamino)prop-1-yn-1-yl)-3-fluorophenyl)-3,6-dihydropyridin-1(2H)-yl)-N-hydroxy-2-methyl-2-(methylsulfonyl)butanamide] | 1 to 8 (≈ 2.21 to 17.7 µM) | < 1 | 1 to 8 (≈ 2.21 to 17.7 µM)
12 | CN(C)CC#Cc1c(F)cc(C2=CCN(CCC(C)(C(=O)NO)S(C)(=O)=O)CC2)cc1F (stereo not drawn) [Example 32, 4-(4-(4-(3-(dimethylamino)prop-1-yn-1-yl)-3,5-difluorophenyl)-3,6-dihydropyridin-1(2H)-yl)-N-hydroxy-2-methyl-2-(methylsulfonyl)butanamide] | 1 to 8 (≈ 2.13 to 17 µM) | < 1 | 1 to 8 (≈ 2.13 to 17 µM)
13 | CN(C)CC#Cc1ccc(C2=CCN(CCC(C)(C(=O)NO)S(C)(=O)=O)CC2)c(F)c1 (stereo not drawn) [Example 33, 4-(4-(4-(3-(dimethylamino)prop-1-yn-1-yl)-2-fluorophenyl)-3,6-dihydropyridin-1(2H)-yl)-N-hydroxy-2-methyl-2-(methylsulfonyl)butanamide] | 8 to 16 (≈ 17.7 to 35.4 µM) | 1 to 8 (≈ 2.21 to 17.7 µM) | 1 to 8 (≈ 2.21 to 17.7 µM)
14 | CC(CCN1CC=C(c2ccc(C#Cc3cccs3)cc2)CC1)(C(=O)NO)S(C)(=O)=O (stereo not drawn) [Example 34, N-hydroxy-2-methyl-2-(methylsulfonyl)-4-(4-(4-(thiophen-2-ylethynyl)phenyl)-3,6-dihydropyridin-1(2H)-yl)butanamide] | 1 to 8 (≈ 2.18 to 17.4 µM) | < 1 | 1 to 8 (≈ 2.18 to 17.4 µM)
15 | CC(CCN1CC=C(c2ccc(C#Cc3ccc([N+](=O)[O-])cc3)cc2)CC1)(C(=O)NO)S(C)(=O)=O (stereo not drawn) [Example 35, N-hydroxy-2-methyl-2-(methylsulfonyl)-4-(4-(4-((4-nitrophenyl)ethynyl)phenyl)-3,6-dihydropyridin-1(2H)-yl)butanamide] | > 16 | > 16 | > 16
16 | CC(CCN1CC=C(c2ccc(C#Cc3cccnc3)cc2)CC1)(C(=O)NO)S(C)(=O)=O (stereo not drawn) [Example 36, N-hydroxy-2-methyl-2-(methylsulfonyl)-4-(4-(4-(pyridin-3-ylethynyl)phenyl)-3,6-dihydropyridin-1(2H)-yl)butanamide] | 1 to 8 (≈ 2.2 to 17.6 µM) | < 1 | 1 to 8 (≈ 2.2 to 17.6 µM)
17 | CC(CCN1CC=C(c2ccc(C#Cc3ccc(O)cc3)cc2)CC1)(C(=O)NO)S(C)(=O)=O (stereo not drawn) [Example 37, N-hydroxy-4-(4-(4-((4-hydroxyphenyl)ethynyl)phenyl)-3,6-dihydropyridin-1(2H)-yl)-2-methyl-2-(methylsulfonyl)butanamide] | > 16 | < 1 | > 16
18 | Cn1cnc(C#Cc2ccc(C3=CCN(CCC(C)(C(=O)NO)S(C)(=O)=O)CC3)cc2)c1 (stereo not drawn) [Example 38, N-hydroxy-2-methyl-4-(4-(4-((1-methyl-1H-imidazol-4-yl)ethynyl)phenyl)-3,6-dihydropyridin-1(2H)-yl)-2-(methylsulfonyl)butanamide] | 1 to 8 (≈ 2.19 to 17.5 µM) | < 1 | 1 to 8 (≈ 2.19 to 17.5 µM)
19 | CN1CC(C#Cc2ccc(C3=CCN(CCC(C)(C(=O)NO)S(C)(=O)=O)CC3)cc2)C1 (stereo not drawn) [Example 39, N-hydroxy-2-methyl-4-(4-(4-((1-methylazetidin-3-yl)ethynyl)phenyl)-3,6-dihydropyridin-1(2H)-yl)-2-(methylsulfonyl)butanamide] | 8 to 16 (≈ 18 to 35.9 µM) | 8 to 16 (≈ 18 to 35.9 µM) | 8 to 16 (≈ 18 to 35.9 µM)
20 | CC(=O)N1CC(C#Cc2ccc(C3=CCN(CCC(C)(C(=O)NO)S(C)(=O)=O)CC3)cc2)C1 (stereo not drawn) [Example 40, 4-(4-(4-((1-acetylazetidin-3-yl)ethynyl)phenyl)-3,6-dihydropyridin-1(2H)-yl)-N-hydroxy-2-methyl-2-(methylsulfonyl)butanamide] | 1 to 8 (≈ 2.11 to 16.9 µM) | 1 to 8 (≈ 2.11 to 16.9 µM) | 1 to 8 (≈ 2.11 to 16.9 µM)
21 | CC(CCN1CC=C(c2ccc(C#CC3CN(S(C)(=O)=O)C3)cc2)CC1)(C(=O)NO)S(C)(=O)=O (stereo not drawn) [Example 41, N-hydroxy-2-methyl-2-(methylsulfonyl)-4-(4-(4-((1-(methylsulfonyl)azetidin-3-yl)ethynyl)phenyl)-3,6-dihydropyridin-1(2H)-yl)butanamide] | 8 to 16 (≈ 15.7 to 31.4 µM) | 1 to 8 (≈ 1.96 to 15.7 µM) | 8 to 16 (≈ 15.7 to 31.4 µM)
22 | CC(CCN1CC=C(c2ccc(C#CC#CCCCO)c(F)c2)CC1)(C(=O)NO)S(C)(=O)=O (stereo not drawn) [Example 42, 4-(4-(3-fluoro-4-(7-hydroxyhepta-1,3-diyn-1-yl)phenyl)-3,6-dihydropyridin-1(2H)-yl)-N-hydroxy-2-methyl-2-(methylsulfonyl)butanamide] | 1 to 8 (≈ 2.1 to 16.8 µM) | < 1 | 1 to 8 (≈ 2.1 to 16.8 µM)
23 | CC(CCN1CC=C(c2ccc(C#CC#CCCO)c(F)c2)CC1)(C(=O)NO)S(C)(=O)=O (stereo not drawn) [Example 43, 4-(4-(3-fluoro-4-(6-hydroxyhexa-1,3-diyn-1-yl)phenyl)-3,6-dihydropyridin-1(2H)-yl)-N-hydroxy-2-methyl-2-(methylsulfonyl)butanamide] | 1 to 8 (≈ 2.16 to 17.3 µM) | < 1 | 1 to 8 (≈ 2.16 to 17.3 µM)
24 | CC(CCN1CC=C(c2ccc(C#CC#CC3CC3)c(F)c2)CC1)(C(=O)NO)S(C)(=O)=O (stereo not drawn) [Example 44, 4-(4-(4-(cyclopropylbuta-1,3-diyn-1-yl)-3-fluorophenyl)-3,6-dihydropyridin-1(2H)-yl)-N-hydroxy-2-methyl-2-(methylsulfonyl)butanamide] | 1 to 8 (≈ 2.18 to 17.4 µM) | < 1 | 1 to 8 (≈ 2.18 to 17.4 µM)
25 | CN(C)CC#CC#Cc1ccc(C2=CCN(CCC(C)(C(=O)NO)S(C)(=O)=O)CC2)cc1F (stereo not drawn) [Example 45, 4-(4-(4-(5-(dimethylamino)penta-1,3-diyn-1-yl)-3-fluorophenyl)-3,6-dihydropyridin-1(2H)-yl)-N-hydroxy-2-methyl-2-(methylsulfonyl)butanamide] | 1 to 8 (≈ 2.1 to 16.8 µM) | < 1 | 1 to 8 (≈ 2.1 to 16.8 µM)
